Laboratory results reported in patent US8802692B2, “Synergistic effects between sphingosine-1-phosphate receptor antagonists and antimicrotubule agents” (Exelixis, Inc., priority 2008, dated 2014).

What was measured:
Format in all cases: in vivo, Nude mice
[1] = system: human MDA-MB-231 breast cancer cells (ATCC#HTB-26); assay: MDA-MB-231 breast cancer xenograft, S1P1R antagonist + docetaxel; settings: docetaxel alone 7 mg/kg q3d ip; start 96 mgs
Procedure: In this experiment, a maximum efficacy dose of an S1P1R receptor antagonist was used with an optimal dose of docetaxol (Haorui Pharma Chem, Inc; CAS#114977-28-5). Compound #2, 50, 52, or 75 were used in these experiments. Nude mice (athymic female mice, Taconic Farms, Inc., 10 animals per group) were inoculated subcutaneously with human MDA-MB-231 breast cancer cells (ATCC#HTB-26) (1×10^6 cells per animal). After tumors were allowed to grow for 17 days, one group of animals was treated with docetaxel at a dose of 7 mg/kg q3d ip. One group of animals was treated with a specific dose of S1P1R receptor antagonist and the same dose of docetaxel using the same schedule used for the individual docetaxel group. Finally, a control group was treated with the vehicles used for each agent individually. Tumor dimensions were measured by calipers and then converted to weight using the formula: tumor weight (mg)=[tumor volume=length (mm)×width^2(mm^2)]/2. Animals were also monitored for weight loss as an indicator of signs of toxicity. The S1P1R receptor antagonist was formulated in a composition containing 10% NMP (n-methyl pyrrolidone)+90% corn oil. […]
Cells were inoculated subcutaneously on day 0 and allowed to grow for 17 days. […] Dosing continued for 7 cycles (q3d) and tumors in each of the three groups were measured and averaged. […]

[2] = system: human non-small cell lung carcinoma cells (ATCC #HTB-56); assay: Non-small cell lung carcinoma xenograft (Calu-6 XN model), S1P1R antagonist + paclitaxel; settings: paclitaxel alone 15 mg/kg q3d ip; dosing day 9 to day 31; control about 1500 mgs
Procedure: In this experiment, a maximum efficacy dose of an S1P1R receptor antagonist was used with an optimal dose of paclitaxel (MP Biomedicals cat #193532). Nude mice (athymic female mice, Taconic Farms, Inc., 10 animals per group) were inoculated subcutaneously with human non-small cell lung carcinoma cells (ATCC #HTB-56) (1×10^6 cells per animal). After tumors were allowed to grow for 9 days, one group of animals was treated with a S1P1R receptor antagonist (100 mg/kg qd po). A second group of animals was treated with paclitaxel at a dose of 15 mg/kg q3d ip. A third group of animals was treated with a S1P1R receptor antagonist and paclitaxel using the same dose and schedule used for the individual agents. A fourth control group was treated with the vehicles used for each agent individually. Tumor dimensions were measured by calipers and then converted to weight using the formula: tumor weight (mg)=[tumor volume=length (mm)×[…]]/2. Animals were also monitored for weight loss as an indicator of signs of toxicity. […]
Cells were inoculated subcutaneously on day 0 and allowed to grow for 9 days. […] Dosing continued until day 31 and tumors from some animals in each of the four groups were measured and averaged. Some animals in the paclitaxel group and the combined treatment group were monitored after treatment stopped for a period of time. […]

[3] = system: human MDA-MB-231 cells breast cancer cells (ATCC #HTB-26); assay: MDA-MB-231 breast cancer xenograft, S1P1R antagonist + paclitaxel; settings: paclitaxel alone 7.5 mg/kg q3d ip; start 100 mgs
Procedure: In this experiment, 4 different doses of an S1P1R receptor antagonist, 0.3 mgs/kg, 3 mgs/kg, 10 mgs/kg or 30 mgs/kg was used with an optimal dose of paclitaxel (MP Biomedicals cat #193532). Nude mice (athymic female mice, Taconic Farms, Inc., 10 animals per group) were inoculated subcutaneously with human MDA-MB-231 cells breast cancer cells (ATCC #HTB-26) (1×10^6 cells per animal). After tumors were allowed to grow for 21 days, one group of animals was treated with paclitaxel at a dose of 7.5 mg/kg q3d ip. Four groups of animals were treated with a specific concentration of S1P1R receptor antagonist and the same concentration of paclitaxel using the same schedule used for the individual paclitaxel group. Finally, a control group was treated with the vehicles used for each agent individually. Tumor dimensions were measured by calipers and then converted to weight using the formula: tumor weight (mg)=[tumor volume=length (mm)×[…]]/2. Animals were also monitored for weight loss as an indicator of signs of toxicity. The S1P1R Receptor antagonist was formulated in a compostion containing 10% NMP (n-methyl pyrrolidone)+90% corn oil. […]
Cells were inoculated subcutaneously on day 0 and allowed to grow for 21 days. […] Dosing continued for 19 days and tumors in each of the four groups were measured and averaged. […]

[4] = system: human MDA-MB-231 breast cancer cells (ATCC# HTB-26); assay: MDA-MB-231 breast cancer xenograft, S1P1R antagonist + vincristine; settings: start 95 mgs
Procedure: In this experiment, a maximum efficacy dose of an S1P1R receptor antagonist was used with doses of vincristine (Yes Pharma, Ltd., CAS#2068-78-2, Lot#80702). Compound #2, 50, 52, or 75 were used in these experiments. Nude mice (athymic female mice, Taconic Farms, Inc., 10 animals per group) were inoculated subcutaneously with human MDA-MB-231 breast cancer cells (ATCC# HTB-26) (1×10^6 cells per animal). After tumors were allowed to grow for 19 days, two groups of animals were treated with vincristine at doses of 0.1 or 1 mg/kg q3d iv. One group of animals was treated with a specific concentration of S1P1R receptor antagonist. Two groups of animals were treated with a specific dose of S1P1R receptor antagonist and the same dose of vincristine using the same schedule used for the individual vincristine groups. Finally, a control group was treated with the vehicles used for each agent individually. Tumor dimensions were measured by calipers and then converted to weight using the formula: tumor weight (mg)=[tumor volume=length (mm)×width^2(mm^2)]/2. Animals were also monitored for weight loss as an indicator of signs of toxicity. […]
Cells were inoculated subcutaneously on day 0 and allowed to grow for 19 days. […] Dosing continued for 8 cycles (q3d) and tumors in each of the six groups were measured and averaged. […]

CC(=O)O[C@@]12CO[C@@H]1C[C@H](O)[C@@]1(C)C(=O)[C@H](O)C3=C(C)[C@@H](OC(=O)[C@H](O)[C@@H](NC(=O)OC(C)(C)C)c4ccccc4)C[C@@](O)([C@@H](OC(=O)c4ccccc4)[C@H]21)C3(C)C [docetaxel]
average tumor weight after 7 cycles of treatment [1]: about 310 mgs

CC(=O)O[C@H]1C(=O)[C@@]2(C)[C@H]([C@H](OC(=O)c3ccccc3)[C@]3(O)C[C@H](OC(=O)[C@H](O)[C@@H](NC(=O)c4ccccc4)c4ccccc4)C(C)=C1C3(C)C)[C@]1(OC(C)=O)CO[C@@H]1C[C@@H]2O [paclitaxel]
average tumor weight after treatment [2]: about 550 mgs
average tumor weight after 19 days of treatment [3]: about 325 mgs

CC[C@]1(O)C[C@H]2CN(CCc3c([nH]c4ccccc34)[C@@](C(=O)OC)(c3cc4c(cc3OC)N(C=O)[C@H]3[C@@](O)(C(=O)OC)[C@H](OC(C)=O)[C@]5(CC)C=CCN6CC[C@]43[C@@H]65)C2)C1 [vincristine]
average tumor weight after 8 cycles of treatment ([4]; vincristine alone 0.1 mg/kg q3d iv): 659 mg
average tumor weight after 8 cycles of treatment ([4]; vincristine alone 1 mg/kg q3d iv): 26 mg
